Earlier results, collected in US20190000853A1, “ANTIVIRAL 4-(2-AMINO-6-HETEROCYLYL-9H-PURIN-9-YL)-2-CYCLOPENTENE-1 -METHANOL COMPOUNDS” (THE UNIVERSITY OF LIVERPOOL, priority 2015, published 2019).

System: HIV-1
Settings: literature comparison with Abacavir

In the case of `Nc1nc(N2CCC2)c2ncn([C@H]3C=C[C@@H](CO)C3)c2n1` [ABC1-4], the “Antiviral potency relative to Abacavir” value is given as “equipotent to Abacavir”.
